Assay results reported in publication PMC7377239, “Cardiovascular Effects of Polychlorinated Biphenyls and Their Major Metabolites” (Environmental Health Perspectives, 2020).
Like-named read-outs stand apart in the source and are kept apart here.

System: iCell cardiomyocytes (human iPSC-derived cardiomyocytes)
Experiment: Intracellular Ca2+ flux / beating parameters in iCell cardiomyocytes (FLIPR tetra), 90 min or 24 h
Assay type: cell-based
Details: Homo sapiens, Cardiomyocyte, 0.00 µM = 100.00; for activity at 0.1 µM: 0.10 µM
How it was run: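 Gelatin-plated iCell cardiomyocytes (5,000/well) were dye-loaded for 2 h at 37 °C, then exposed for 90 min or 24 h to PCBs/metabolites (5× plates at 0.05–500 µM; 0.5% DMSO final) in triplicate. Ca2+ flux was read for 100 s at 8 Hz and 37 °C. Peak height, frequency, spacing CV and decay/rise ratio were vehicle-normalized and fitted with a four-parameter logistic model, with POD set at 1 SD of vehicle.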

[1] = 1.5 h, 90min, read-out: cm.amp.avg.90min
[2] = 1.5 h, 90min, read-out: cm.amp.cv.90min
[3] = 1.5 h, 90min, read-out: cm.bpm.90min
[4] = 1.5 h, 90min, read-out: cm.decay.rise.90min
[5] = 1.5 h, 90min, read-out: cm.spacing.cv.90min
[6] = 24 h, 24hrs, read-out: cm.amp.avg.24hrs
[7] = 24 h, 24hrs, read-out: cm.amp.cv.24hrs
[8] = 24 h, 24hrs, read-out: cm.bpm.24hrs
[9] = 24 h, 24hrs, read-out: cm.decay.rise.24hrs
[10] = 24 h, 24hrs, read-out: cm.spacing.cv.24hrs

Clc1ccc(Cl)c(-c2cc(Cl)ccc2Cl)c1 [PCB52] showed an activity at 0.01 µM [1] of 97.9%, an activity at 0.01 µM [2] of 90.9% and an activity at 0.01 µM [3] of 102%. For the same compound, the activity at 0.01 µM [4] was 101%, the activity at 0.01 µM [5] was 93.9% and the activity at 0.1 µM [1] was 101%. It also gave an activity at 0.1 µM [2] of 102%, an activity at 0.1 µM [3] of 99.1% and an activity at 0.1 µM [4] of 101%. The activity at 0.1 µM [5] was 98.6%, the activity at 1 µM [1] was 105% and the activity at 1 µM [2] was 111%. It also gave an activity at 1 µM [3] of 97.8%, an activity at 1 µM [4] of 102% and an activity at 1 µM [5] of 91%. For the same compound, the activity at 10 µM [1] was 96.6%, the activity at 10 µM [2] was 99.4% and the activity at 10 µM [3] was 99.1%. For the same compound, the activity at 10 µM [4] was 111%, the activity at 10 µM [5] was 102% and the activity at 100 µM [1] was 44.4%. The activity at 100 µM [2] was 73%, the activity at 100 µM [3] was 0% and the activity at 100 µM [4] was 42.8%. It also gave an activity at 100 µM [5] of 71.6%, an activity at 0.01 µM [6] of 86.6% and an activity at 0.01 µM [7] of 98.1%. The activity at 0.01 µM [8] was 96.4%, the activity at 0.01 µM [9] was 111% and the activity at 0.01 µM [10] was 109%. For the same compound, the activity at 0.1 µM [6] was 84.6%, the activity at 0.1 µM [7] was 95.6% and the activity at 0.1 µM [8] was 90.7%. For the same compound, the activity at 0.1 µM [9] was 108%, the activity at 0.1 µM [10] was 89.3% and the activity at 1 µM [6] was 51.8%. It also gave an activity at 1 µM [7] of 42.2%, an activity at 1 µM [8] of 46.8% and an activity at 1 µM [9] of 55.5%. For the same compound, the activity at 1 µM [10] was 44.5%, the activity at 10 µM [6] was 86.5% and the activity at 10 µM [7] was 119%. It also gave an activity at 10 µM [8] of 93.6%, an activity at 10 µM [9] of 127% and an activity at 10 µM [10] of 98.5%. It also gave an activity at 100 µM [6] of 0%, an activity at 100 µM [7] of 0% and an activity at 100 µM [8] of 0%. For the same compound, the activity at 100 µM [9] was 0% and the activity at 100 µM [10] was 0%.

Oc1cc(Cl)c(-c2cc(Cl)ccc2Cl)cc1Cl [4-OH PCB52] showed an activity at 0.01 µM [1] of 107%, an activity at 0.01 µM [2] of 94.5% and an activity at 0.01 µM [3] of 97.8%. The activity at 0.01 µM [4] was 98.4%, the activity at 0.01 µM [5] was 115% and the activity at 0.1 µM [1] was 103%. For the same compound, the activity at 0.1 µM [2] was 96.5%, the activity at 0.1 µM [3] was 99.1% and the activity at 0.1 µM [4] was 96.6%. It also gave an activity at 0.1 µM [5] of 104%, an activity at 1 µM [1] of 110% and an activity at 1 µM [2] of 99.2%. It also gave an activity at 1 µM [3] of 91.5%, an activity at 1 µM [4] of 99.2% and an activity at 1 µM [5] of 108%. The activity at 10 µM [1] was 105%, the activity at 10 µM [2] was 100% and the activity at 10 µM [3] was 58.9%. For the same compound, the activity at 10 µM [4] was 114%, the activity at 10 µM [5] was 102% and the activity at 100 µM [1] was 0%. It also gave an activity at 100 µM [2] of 0%, an activity at 100 µM [3] of 0% and an activity at 100 µM [4] of 0%. For the same compound, the activity at 100 µM [5] was 0%, the activity at 0.01 µM [6] was 125% and the activity at 0.01 µM [7] was 96.2%. For the same compound, the activity at 0.01 µM [8] was 105%, the activity at 0.01 µM [9] was 93.1% and the activity at 0.01 µM [10] was 102%. It also gave an activity at 0.1 µM [6] of 79.9%, an activity at 0.1 µM [7] of 128% and an activity at 0.1 µM [8] of 95.5%. It also gave an activity at 0.1 µM [9] of 89.2%, an activity at 0.1 µM [10] of 94% and an activity at 1 µM [6] of 112%. The activity at 1 µM [7] was 79.4%, the activity at 1 µM [8] was 86.9% and the activity at 1 µM [9] was 101%. The activity at 1 µM [10] was 82.1%, the activity at 10 µM [6] was 80.2% and the activity at 10 µM [7] was 113%. The activity at 10 µM [8] was 86.9%, the activity at 10 µM [9] was 104% and the activity at 10 µM [10] was 96.7%. For the same compound, the activity at 100 µM [6] was 0%, the activity at 100 µM [7] was 0% and the activity at 100 µM [8] was 0%. It also gave an activity at 100 µM [9] of 0% and an activity at 100 µM [10] of 0%.
